The source of these data is publication PMC6880817, “Palladium-catalyzed synthesis and nucleotide pyrophosphatase inhibition of benzo[4,5]furo[3,2-b]indoles” (Beilstein Journal of Organic Chemistry, 2019).

Like-named read-outs stand apart in the source and are kept apart here. Where only a bound is given, the exact number is not on record here.

One data set has as its target T1, h-NPP-3 (Homo sapiens, UniProt O14638).
T1 construct: made in house; host or cells: COS-7 cells transiently transfected with a plasmid expressing human NPP-3; lysate/membrane fraction used as the enzyme
T1 sequence (O14638 1-875): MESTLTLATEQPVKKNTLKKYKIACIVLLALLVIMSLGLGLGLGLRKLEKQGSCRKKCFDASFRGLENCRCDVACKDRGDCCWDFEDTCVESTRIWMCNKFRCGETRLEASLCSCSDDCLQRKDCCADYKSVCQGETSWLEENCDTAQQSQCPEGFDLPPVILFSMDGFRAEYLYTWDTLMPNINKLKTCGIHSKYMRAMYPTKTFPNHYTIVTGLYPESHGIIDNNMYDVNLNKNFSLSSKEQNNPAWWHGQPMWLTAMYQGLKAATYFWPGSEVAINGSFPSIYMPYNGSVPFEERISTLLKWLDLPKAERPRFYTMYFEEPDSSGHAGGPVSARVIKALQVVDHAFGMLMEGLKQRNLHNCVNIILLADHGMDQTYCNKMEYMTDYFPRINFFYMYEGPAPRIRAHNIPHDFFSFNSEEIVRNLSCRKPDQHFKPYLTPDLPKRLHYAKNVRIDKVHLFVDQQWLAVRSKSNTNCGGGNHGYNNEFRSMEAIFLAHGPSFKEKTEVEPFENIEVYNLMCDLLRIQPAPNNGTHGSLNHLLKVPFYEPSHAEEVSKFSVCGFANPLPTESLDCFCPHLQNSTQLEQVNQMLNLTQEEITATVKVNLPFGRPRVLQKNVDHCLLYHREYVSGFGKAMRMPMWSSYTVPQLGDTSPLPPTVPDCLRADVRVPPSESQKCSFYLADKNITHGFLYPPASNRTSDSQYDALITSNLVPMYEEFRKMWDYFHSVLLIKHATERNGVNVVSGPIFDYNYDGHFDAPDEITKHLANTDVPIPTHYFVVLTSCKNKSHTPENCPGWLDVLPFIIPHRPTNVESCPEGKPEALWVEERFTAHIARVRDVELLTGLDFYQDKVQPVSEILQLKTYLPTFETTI
Description: Nucleotide pyrophosphatase inhibition assay (colorimetric, pNP-TMP substrate), h-NPP-3. The format is biochemical. Conditions: for selectivity of inhibitory response towards h-NPP-3: h-NPP-3 versus h-NPP-1, result in words. The protocol:
(§1) The inhibition potential of all the sulphonate derivatives against NPP1 and NPP3, was determined by considering an already reported colorimetric method with minor modifications. The reaction buffer was comprised of 50 mM Tris-hydrochloric acid, 5 mM magnesium chloride (MgCl2) and 0.1 mM zinc chloride (ZnCl2) with final pH 9.5. For initial screening of compounds, first enzyme and substrate parameters (concentration, temperature, time) were optimized. The reaction assay was performed at 100 µL well volume containing assay buffer, 10 µL of 1 mM test compound prepared in 10% DMSO, enzymes NPP1 (35 ng), NPP3 (94 ng) and assay buffer. The reaction mixture was incubated at 37 °C, 10 minutes for NPP1 and NPP3. Absorbance was taken at wavelength of 405 nm as pre-read by using a microplate reader (BioTek FLx800, Instruments, Inc. USA). After pre-read the artificial substrate p-nitrophenyl 5'-thymidine monophosphate (pNP-TMP), 400 µM for NPP1 and 600 µM in case of NPP3, was added followed by a second incubation at 37 °C, 15 minutes for NPP1 and NPP3. Absorbance was taken as after read. All the experiments were performed in triplicate.
(§2) Cell transfection with human NPPs. Analogous as previously described, COS-7 cells were transfected with plasmids expressing human NPPs ((NPP-1) or (NPP-3)) in 10 cm plates, by using Lipofectamine. The confluent cells were incubated for 5 h at 37 °C in DMEM/F-12 in the absence of fetal bovine serum and with 6 µg of plasmid DNA and 24 µL of lipofectamine reagent. Subsequently, the same volume of DMEM/F-12 containing 20% FBS was added to stop the transfection and cells were harvested 48–72 h later.
(§3) Preparation of membrane fractions. Analogous as previously described, the transfected cells were washed three times with Tris–saline buffer at 4 °C and then the cells were collected by scraping in the harvesting buffer (95 mM NaCl, 0.1 mM PMSF, and 45 mM Tris buffer, pH 7.5). Afterwards, the cells were washed twice by centrifugation at 300g for 5 min at 4 °C [4]. These cells were resuspended in the harvesting buffer containing 1 0 µg/mL aprotinin and then sonicated. Cellular and nuclear debris were discarde d by 10 min centrifugation (300 g at 4 °C). Glycerol (final concentration of 7.5%) was added to the resulting supernatant and all the samples were kept at −80 °C until used. Bra dford microplate assay was used for the estimation of protein concentration. Bovine serum albumin was used as a reference standard.
(§4) Protocol of nucleotide pyrophosphatase (h -NPP-1 & h-NPP-3) activity. Analogous as previously described , the conditions for the assay were optimized with the slight modifications in previously used spectrophotometric method. The reaction was carried out in the assay buffer which contained 5 mM MgCl 2, 0.1 mM ZnCl 2, 25% glycerol and 50 mM tris-hydrochloride (pH: 9.5). Initial screening was performed at a concentration of 0.1 mM of the tested compounds. The total volume of 100 µL contained 70 µL of the assay buffer, 10 µL of tested compound (0.1 mM with final DMSO 1% (v/v)) and 10 µL of h -NPP-1 (27 ng of protein from CO S cell lysate in assay buffer ) or 10 µL of h -NPP-3 (25 ng of protein from COS cell lysate in assay buffer ). The mixture was pre -incubated for 10 minutes at 37 °C and absorbance was measured at 405 nm as pre -read using microplate reader (BioTek FLx800, Instruments, Inc. USA). The reaction was then initiated by the addition of 10 µL of p-Nph-5-TMP substrate at a final concentration of 0.5 mM and the reaction mixture was incubated for 30 more min at 37 °C. The change in the absorbance was measured as after -read. The activity of each compound was compared with the reaction in absence of tested compounds/inhibitors.
(§5) 3 activity were further evaluated for determination of IC 50 values. For this purpose, their dose response curves were obtained by assaying each inhibitor concentration against both NPPs […]
(§6) using the above mentioned reaction conditions. […]

The next data set deals with T2, h-NPP-1 (Homo sapiens, UniProt P22413).
T2 construct: made in house; host or cells: COS-7 cells transiently transfected with a plasmid expressing human NPP-1; lysate/membrane fraction used as the enzyme
T2 sequence (P22413 1-925): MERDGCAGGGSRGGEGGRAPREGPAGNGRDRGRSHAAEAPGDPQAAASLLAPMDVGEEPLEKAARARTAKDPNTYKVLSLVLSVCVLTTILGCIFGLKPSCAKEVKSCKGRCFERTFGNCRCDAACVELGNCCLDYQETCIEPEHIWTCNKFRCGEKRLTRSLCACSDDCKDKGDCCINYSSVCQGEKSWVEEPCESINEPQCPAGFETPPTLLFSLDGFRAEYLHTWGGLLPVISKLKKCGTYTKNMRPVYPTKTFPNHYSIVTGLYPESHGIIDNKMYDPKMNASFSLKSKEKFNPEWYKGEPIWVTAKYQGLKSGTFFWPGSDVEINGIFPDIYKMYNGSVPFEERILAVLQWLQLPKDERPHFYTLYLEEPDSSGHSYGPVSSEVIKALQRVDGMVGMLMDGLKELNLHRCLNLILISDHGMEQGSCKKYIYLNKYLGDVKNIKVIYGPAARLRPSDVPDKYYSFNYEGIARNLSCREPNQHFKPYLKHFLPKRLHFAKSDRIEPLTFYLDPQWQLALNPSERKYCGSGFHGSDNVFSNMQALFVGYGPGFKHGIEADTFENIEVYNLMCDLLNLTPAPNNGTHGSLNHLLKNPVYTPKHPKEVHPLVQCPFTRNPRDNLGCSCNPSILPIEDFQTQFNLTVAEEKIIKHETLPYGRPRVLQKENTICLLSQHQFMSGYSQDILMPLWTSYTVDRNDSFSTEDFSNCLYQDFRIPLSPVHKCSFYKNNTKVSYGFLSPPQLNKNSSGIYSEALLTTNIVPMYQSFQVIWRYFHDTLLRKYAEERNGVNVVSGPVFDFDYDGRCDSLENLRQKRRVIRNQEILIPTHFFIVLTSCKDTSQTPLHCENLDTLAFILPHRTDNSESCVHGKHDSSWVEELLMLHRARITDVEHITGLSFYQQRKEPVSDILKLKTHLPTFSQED
Briefly: Nucleotide pyrophosphatase inhibition assay (colorimetric, pNP-TMP substrate), h-NPP-1. As to conditions: for interaction with enzyme h-NPP-1: result in words. It counts as biochemical. The protocol: as §1, §2, §3, §4, §5, §6

Setting [1] is: human recombinant NPP3, pNP-TMP substrate, pH 9.5, 37 °C, absorbance 405 nm, read-out: h-NPP-3 IC50(µM) ± SEM.
Where [2] appears, read: human recombinant NPP1, pNP-TMP substrate, pH 9.5, 37 °C, absorbance 405 nm, read-out: h-NPP-1 IC50 (µM) ± SEM.
Where [3] appears, read: read-out: h-NPP-3 IC50 ± SEM (unit inferred).

For orientation: melting point means the temperature of the solid-liquid transition. In general, IC50 refers to the point on the concentration scale where inhibition reaches its midpoint. For `c1ccc(-n2c3ccccc3c3oc4ccccc4c32)cc1` [Compound 5a], the melting point was 137 to 139 °C. Also, the “selectivity of inhibitory response towards h-NPP-3” value on h-NPP-3 was “selective inhibitory response towards nucleotide pyrophosphatase enzyme h-NPP-3”. Besides, the IC50 at h-NPP-3 (setting [1]) came out at 1.38 ± 0.03 µM. The IC50 at h-NPP-1 (setting [2]) is above 100 µM.
On to `Cc1ccc(-n2c3ccccc3c3oc4ccccc4c32)cc1` [Compound 5b], for which the melting point is 134 to 135 °C. For the same molecule, the IC50 at h-NPP-3 (setting [1]) amounted to 0.59 ± 0.02 µM. In addition, the IC50 at h-NPP-1 (setting [2]) is 2.84 ± 0.06 µM.
The corresponding values for `FC(F)(F)c1cccc(-n2c3ccccc3c3oc4ccccc4c32)c1` [Compound 5d] are 178 to 179 °C, 0.49 ± 0.04 µM and 3.57 ± 0.03 µM.
Consider `COc1ccc(-n2c3ccccc3c3oc4ccccc4c32)cc1` [Compound 5e], for which the “selectivity of inhibitory response towards h-NPP-3” value on h-NPP-3 is on record as “selective inhibitory response towards nucleotide pyrophosphatase enzyme h-NPP-3”. Besides, the IC50 at h-NPP-3 (read-out: inhibitory value for h-NPP-3, IC50 ± SEM) was 0.26 ± 0.01 µM; on h-NPP-1 (setting [2]), above 100 µM.
With `COc1ccc(-n2c3ccccc3c3oc4ccccc4c32)cc1OC` [Compound 5f], the melting point was 175 to 176 °C.
Turning to `c1ccc(Cn2c3ccccc3c3oc4ccccc4c32)cc1` [Compound 5h], the IC50 on h-NPP-3 (setting [1]) stood at 0.27 ± 0.06 µM; at h-NPP-1 (setting [2]), 2.62 ± 0.03 µM.
With `CCCCCCCn1c2ccccc2c2oc3ccccc3c21` [Compound 5i], the concentration for half-maximal inhibition (IC50) at h-NPP-3 (setting [1]) came to 2.55 ± 0.07 µM; at h-NPP-1 (setting [2]), 3.27 ± 0.08 µM.
With `c1ccc2c(c1)oc1c3ccccc3n(C3CCCCC3)c21` [Compound 5j], the melting point was in the range of 163 to 164 °C. In addition, the IC50 on h-NPP-3 (setting [1]) worked out at 2.39 ± 0.05 µM. In addition, the IC50 at h-NPP-1 (setting [2]) amounted to 6.14 ± 0.09 µM.
With `Cc1ccc(-n2c3ccccc3c3oc4c5ccccc5n(-c5ccc(C)cc5)c4c32)cc1` [Compound 6a], the IC50 at h-NPP-3 (setting [1]) was found to be 0.61 ± 0.09 µM; on h-NPP-1 (read-out: inhibitory value for h-NPP-1, IC50 ± SEM), 0.11 ± 0.06 µM.
Take `Fc1ccc(-n2c3ccccc3c3oc4c5ccccc5n(-c5ccc(F)cc5)c4c32)cc1` [Compound 6b]: at h-NPP-3, the “selectivity of inhibitory response towards h-NPP-3” value is “highly selective towards h-NPP-3”. For the same molecule, the IC50 is 0.13 ± 0.06 µM on h-NPP-3 (setting [3]) and above 100 µM at h-NPP-1 (setting [2]). Besides, the “interaction with enzyme h-NPP-1” value on h-NPP-1 was “no interaction with enzyme h-NPP-1”.
For `FC(F)(F)c1cccc(-n2c3ccccc3c3oc4c5ccccc5n(-c5cccc(C(F)(F)F)c5)c4c32)c1` [Compound 6c] the same measures were “highly selective towards h-NPP-3”, 0.28 ± 0.04 µM, above 100 µM and “no interaction with enzyme h-NPP-1”.
For the molecule `COc1ccc(-n2c3ccccc3c3oc4c5ccccc5n(-c5ccc(OC)cc5)c4c32)cc1` [Compound 6d], the IC50 on h-NPP-3 (setting [1]) amounted to 0.18 ± 0.01 µM; at h-NPP-1 (setting [2]), 1.38 ± 0.09 µM.
The corresponding values for `c1ccc(Cn2c3ccccc3c3oc4c5ccccc5n(Cc5ccccc5)c4c32)cc1` [Compound 6e] are 0.21 ± 0.04 µM and 0.53 ± 0.09 µM.
